Measured values from publication PMC9221192, “The Prophylactic and Multimodal Activity of Two Isatin Thiosemicarbazones against Alzheimer’s Disease In Vitro” (Brain Sciences, 2022).

Molecular target: T1, soybean lipoxygenase (LOX) (Glycine max, UniProt P08170)
T1 construct: gene LOX1.1
T1 sequence (P08170 1-839): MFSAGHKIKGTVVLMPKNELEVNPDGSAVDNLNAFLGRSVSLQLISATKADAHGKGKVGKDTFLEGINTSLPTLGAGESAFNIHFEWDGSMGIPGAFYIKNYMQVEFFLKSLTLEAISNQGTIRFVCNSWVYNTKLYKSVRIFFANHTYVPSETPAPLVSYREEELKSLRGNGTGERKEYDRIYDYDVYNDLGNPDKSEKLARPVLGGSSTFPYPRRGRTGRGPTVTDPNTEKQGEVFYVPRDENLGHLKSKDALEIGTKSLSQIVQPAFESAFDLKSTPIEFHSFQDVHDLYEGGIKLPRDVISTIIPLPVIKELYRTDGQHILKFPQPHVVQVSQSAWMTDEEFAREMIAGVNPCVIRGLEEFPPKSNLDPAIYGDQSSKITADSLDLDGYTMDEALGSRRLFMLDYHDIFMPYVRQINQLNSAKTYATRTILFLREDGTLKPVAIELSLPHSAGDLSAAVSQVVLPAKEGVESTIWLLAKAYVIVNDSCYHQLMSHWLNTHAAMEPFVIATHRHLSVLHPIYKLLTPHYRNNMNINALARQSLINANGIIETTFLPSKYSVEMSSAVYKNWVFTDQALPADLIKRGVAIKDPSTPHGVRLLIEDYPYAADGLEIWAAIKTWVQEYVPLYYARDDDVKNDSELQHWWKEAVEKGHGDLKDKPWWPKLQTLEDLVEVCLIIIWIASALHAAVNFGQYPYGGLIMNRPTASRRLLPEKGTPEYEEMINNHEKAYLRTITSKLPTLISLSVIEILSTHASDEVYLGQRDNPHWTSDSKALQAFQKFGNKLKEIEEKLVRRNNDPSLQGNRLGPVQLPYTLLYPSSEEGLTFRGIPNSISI
Assay: UV assay at […] nm, sodium linoleate oxidation, pH […]
Format: biochemical

Row | Structure (SMILES) | IC50 [µM]
1 | O=C1C(=NNC(=S)Nc2ccccc2)c2cc(F)ccc2N1CN1CCCCC1 [FMp] | 54
2 | COc1ccc2c(c1)/C(=N/NC(=S)Nc1ccccc1)C(=O)N2 [M] | 60.5
